The record followed here is ChEMBL document CHEMBL1144287, “Synthesis and antifungal activity of noble 5-arylamino- and 6-arylthio-4,7-dioxobenzoselenazoles” (2005).

≈ marks a conversion by molar mass, not a printed value.

Holding throughout (format): functional
One test relates to Pichia kudriavzevii. Nature of the test: Minimum inhibitory concentration was measured against Candida krusei ATCC 749 using modified Sabouraud dextrose broth; (a).
For a further test, the system named is Candida tropicalis. In words: Minimum inhibitory concentration was measured against Candida tropicalis ATCC 28775 using modified Sabouraud dextrose broth; (a).
The test system of another test is Aspergillus flavus. In words: Minimum inhibitory concentration was measured against Aspergillus flavus KCCM 11899 using modified Sabouraud dextrose broth; (a).
For a further test, the system named is Aspergillus niger. Nature of the test: Minimum inhibitory concentration was measured against Aspergillus niger KCTC 1231 using modified Sabouraud dextrose broth; (a).
Another test relates to Candida albicans. In words: Minimum inhibitory concentration was measured against Candida albicans ATCC 10231 using modified Sabouraud dextrose broth; (a).

Usually MIC stands for the smallest concentration in the dilution series that meets the test's criterion for growth inhibition. Higher therefore signals weaker potency.

Take `COC1=C(Sc2ccc(C)cc2)C(=O)c2[se]c(C)nc2C1=O`: the minimum inhibitory concentration (MIC) came to 25 µg/mL (≈ 66.1 µM) against Pichia kudriavzevii; 6.3 µg/mL (≈ 16.7 µM) with Candida tropicalis; 50 µg/mL (≈ 132 µM) in the test on Aspergillus flavus; 25 µg/mL (≈ 66.1 µM) in the test with Aspergillus niger; 12.5 µg/mL (≈ 33 µM) against Candida albicans.

As to `COC1=CC(=O)c2[se]c(C)nc2C1=O`, the minimum inhibitory concentration (MIC) against Pichia kudriavzevii is 25 µg/mL (≈ 97.6 µM); in the test on Candida tropicalis it was 12.5 µg/mL (≈ 48.8 µM); against Aspergillus flavus it was 50 µg/mL (≈ 195 µM); in the test with Aspergillus niger, 25 µg/mL (≈ 97.6 µM); against Candida albicans, 50 µg/mL (≈ 195 µM).

In the case of `COC1=C(Sc2ccc(OC)cc2)C(=O)c2[se]c(C)nc2C1=O`, the minimal inhibitory concentration (MIC) was found to be 12.5 µg/mL (≈ 31.7 µM) against Pichia kudriavzevii; 12.5 µg/mL (≈ 31.7 µM) with Candida tropicalis; 25 µg/mL (≈ 63.4 µM) with Aspergillus flavus; 12.5 µg/mL (≈ 31.7 µM) in the test with Aspergillus niger; 25 µg/mL (≈ 63.4 µM) in the test with Candida albicans.

On to `COc1ccc(NC2=CC(=O)c3[se]c(C)nc3C2=O)cc1`, for which the minimal inhibitory concentration (MIC) in the test with Pichia kudriavzevii, against Candida tropicalis, against Aspergillus flavus, against Aspergillus niger and against Candida albicans was 12.5 µg/mL (≈ 36 µM) throughout.

Regarding `COC1=C(Sc2ccc(F)cc2)C(=O)c2[se]c(C)nc2C1=O`, the minimal inhibitory concentration (MIC) with Pichia kudriavzevii came out at 25 µg/mL (≈ 65.4 µM); against Candida tropicalis, 3.2 µg/mL (≈ 8.37 µM); in the test with Aspergillus flavus, 50 µg/mL (≈ 131 µM); against Aspergillus niger it was 50 µg/mL (≈ 131 µM); against Candida albicans, 25 µg/mL (≈ 65.4 µM).

In the case of `COC1=C(Sc2ccc(F)c(F)c2)C(=O)c2[se]c(C)nc2C1=O`, the MIC was found to be 6.3 µg/mL (≈ 15.7 µM) in the test on Pichia kudriavzevii; 6.3 µg/mL (≈ 15.7 µM) with Candida tropicalis; 25 µg/mL (≈ 62.5 µM) with Aspergillus flavus; 25 µg/mL (≈ 62.5 µM) in the test on Aspergillus niger; 12.5 µg/mL (≈ 31.2 µM) in the test with Candida albicans.

Turning to `COC1=C(Sc2ccc([N+](=O)[O-])cc2)C(=O)c2[se]c(C)nc2C1=O`, the MIC against Pichia kudriavzevii is 25 µg/mL (≈ 61.1 µM); in the test on Candida tropicalis it was 1.6 µg/mL (≈ 3.91 µM); against Aspergillus flavus, 12.5 µg/mL (≈ 30.5 µM); against Aspergillus niger, 50 µg/mL (≈ 122 µM); with Candida albicans it was 3.2 µg/mL (≈ 7.82 µM).

For the compound `COC1=C(Sc2ccc(Cl)cc2)C(=O)c2[se]c(C)nc2C1=O`, the minimal inhibitory concentration (MIC) with Pichia kudriavzevii was determined as 25 µg/mL (≈ 62.7 µM); against Candida tropicalis, 12.5 µg/mL (≈ 31.3 µM); against Aspergillus flavus, 25 µg/mL (≈ 62.7 µM); in the test with Aspergillus niger it was 25 µg/mL (≈ 62.7 µM); against Candida albicans it was 25 µg/mL (≈ 62.7 µM).

For `COC1=C(Sc2ccccc2)C(=O)c2[se]c(C)nc2C1=O`, the minimal inhibitory concentration (MIC) in the test with Pichia kudriavzevii was determined as 6.3 µg/mL (≈ 17.3 µM); against Candida tropicalis, 6.3 µg/mL (≈ 17.3 µM); against Aspergillus flavus, 12.5 µg/mL (≈ 34.3 µM); against Aspergillus niger, 12.5 µg/mL (≈ 34.3 µM); against Candida albicans, 6.3 µg/mL (≈ 17.3 µM).

In the case of `Cc1nc2c([se]1)C(=O)C=C(Nc1ccccc1)C2=O`, the minimum inhibitory concentration (MIC) against Pichia kudriavzevii, against Candida tropicalis, against Aspergillus flavus, against Aspergillus niger and with Candida albicans was 6.3 µg/mL (≈ 19.9 µM) each time.

On to `Cc1nc2c([se]1)C(=O)C=C(Nc1ccc(F)cc1)C2=O`, for which the MIC in the test on Pichia kudriavzevii is 6.3 µg/mL (≈ 18.8 µM); in the test on Candida tropicalis it was 6.3 µg/mL (≈ 18.8 µM); against Aspergillus flavus, 12.5 µg/mL (≈ 37.3 µM); against Aspergillus niger, 6.3 µg/mL (≈ 18.8 µM); against Candida albicans, 6.3 µg/mL (≈ 18.8 µM).

As to `Cc1nc2c([se]1)C(=O)C=C(Nc1ccc(Cl)cc1)C2=O`, the minimal inhibitory concentration (MIC) in the test on Pichia kudriavzevii, with Candida tropicalis, in the test on Aspergillus flavus, against Aspergillus niger and with Candida albicans was 12.5 µg/mL (≈ 35.5 µM) in each case.

For `Cc1nc2c([se]1)C(=O)C=C(Nc1ccc(Br)cc1)C2=O`, the minimum inhibitory concentration (MIC) in the test on Pichia kudriavzevii amounted to 50 µg/mL (≈ 126 µM); in the test with Candida tropicalis, 50 µg/mL (≈ 126 µM); in the test with Aspergillus flavus, 50 µg/mL (≈ 126 µM); against Aspergillus niger, 25 µg/mL (≈ 63.1 µM); in the test on Candida albicans, 12.5 µg/mL (≈ 31.6 µM).

Turning to `Cc1nc2c([se]1)C(=O)C=C(Nc1ccc(C(F)(F)F)cc1)C2=O`, the minimal inhibitory concentration (MIC) was 3.2 µg/mL (≈ 8.31 µM) against Pichia kudriavzevii; 3.2 µg/mL (≈ 8.31 µM) against Candida tropicalis; 25 µg/mL (≈ 64.9 µM) with Aspergillus flavus; 12.5 µg/mL (≈ 32.5 µM) in the test with Aspergillus niger; 25 µg/mL (≈ 64.9 µM) against Candida albicans.

For `Cc1nc2c([se]1)C(=O)C=C(Nc1cccc(F)c1)C2=O`, the MIC was 6.3 µg/mL (≈ 18.8 µM) with Pichia kudriavzevii; 3.2 µg/mL (≈ 9.55 µM) with Candida tropicalis; 12.5 µg/mL (≈ 37.3 µM) against Aspergillus flavus; 12.5 µg/mL (≈ 37.3 µM) in the test on Aspergillus niger; 12.5 µg/mL (≈ 37.3 µM) with Candida albicans.

For `Cc1nc2c([se]1)C(=O)C=C(Nc1cc(Cl)cc(Cl)c1)C2=O`, the MIC in the test with Pichia kudriavzevii is 25 µg/mL (≈ 64.8 µM); with Candida tropicalis, 3.2 µg/mL (≈ 8.29 µM); in the test on Aspergillus flavus, 12.5 µg/mL (≈ 32.4 µM); in the test on Aspergillus niger, 12.5 µg/mL (≈ 32.4 µM); against Candida albicans it was 1.6 µg/mL (≈ 4.14 µM).

Take `Cc1nc2c([se]1)C(=O)C=C(Nc1ccc(I)cc1)C2=O`: the minimal inhibitory concentration (MIC) with Pichia kudriavzevii, in the test with Candida tropicalis, against Aspergillus flavus, with Aspergillus niger and in the test on Candida albicans was 25 µg/mL (≈ 56.4 µM) in each case.

Consider `Cc1ccc(NC2=CC(=O)c3[se]c(C)nc3C2=O)cc1`, for which the minimal inhibitory concentration (MIC) was 25 µg/mL (≈ 75.5 µM) against Pichia kudriavzevii; 25 µg/mL (≈ 75.5 µM) against Candida tropicalis; 12.5 µg/mL (≈ 37.7 µM) against Aspergillus flavus; 6.3 µg/mL (≈ 19 µM) with Aspergillus niger; 6.3 µg/mL (≈ 19 µM) against Candida albicans.

Turning to `Nc1nc(=O)[nH]cc1F` [FLUCYTOSINE], the MIC against Pichia kudriavzevii was 50 µg/mL (≈ 387 µM); against Candida tropicalis, 12.5 µg/mL (≈ 96.8 µM); against Aspergillus flavus it was 50 µg/mL (≈ 387 µM); against Aspergillus niger, 12.5 µg/mL (≈ 96.8 µM); against Candida albicans, 12.5 µg/mL (≈ 96.8 µM).
